In PubChem BioAssay (NCI) one finds TGI and GI50 data, which are given here for 13 compounds.

Test systems include 786-0 renal; A498 renal; ACHN renal; K-562 leukemia; KM12 colon; M14 melanoma; RPMI-8226 leukemia; SK-MEL-28 melanoma; SK-MEL-5 melanoma; SNB-75 CNS.
What all share (experiment): DTP human tumour cell line panel, 48 h

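Where inhibition never reached the appropriate level, the endpoint shown equals the highest concentration tested. Otherwise, values were interpolated linearly from a five-concentration, 48-hour dose response in 96-well plates. GI50 is the concentration that inhibits growth by half. TGI denotes the concentration required for complete inhibition of growth.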

As to `O=C1C2=C(c3ccccc31)C(c1ccc(Cl)cc1)N1C(=O)CCSC1=N2` (centres undefined), the TGI in the test on 786-0 renal, with A498 renal, in the test on ACHN renal, with K-562 leukemia, in the test with KM12 colon and with M14 melanoma was over 100 µM each time. The TGI in the test on RPMI-8226 leukemia, in the test with SK-MEL-28 melanoma, in the test with SK-MEL-5 melanoma and in the test on SNB-75 CNS was over 100 µM throughout.

As for `CCOC(=O)c1cnc(SCc2ccc(Cl)c(Cl)c2)nc1N1CC1`, the GI50 (commonly the concentration at which growth is held to half of that of the control) with 786-0 renal is 3.24 µM; in the test on A498 renal it was 2820 nM; with ACHN renal, 3120 nM; with K-562 leukemia, 1150 nM; in the test with KM12 colon it was 3.13 µM; with M14 melanoma it was 2890 nM. The GI50 was 2540 nM with RPMI-8226 leukemia, 5.88 µM in the test on SK-MEL-28 melanoma, 3.39 µM in the test on SK-MEL-5 melanoma and 2050 nM in the test with SNB-75 CNS. In addition, the TGI (as a rule, the concentration giving total growth inhibition) in the test with 786-0 renal turned out to be 14.1 µM; with A498 renal, 14.4 µM; in the test with ACHN renal, 13.2 µM; in the test on K-562 leukemia, 14.8 µM; in the test on KM12 colon, 12.5 µM; in the test on M14 melanoma it was 11.7 µM. Besides, the TGI with RPMI-8226 leukemia came to 9.64 µM; in the test with SK-MEL-28 melanoma, 19.9 µM; in the test with SK-MEL-5 melanoma, 12.6 µM; in the test with SNB-75 CNS, 6.09 µM.

Take `COc1ccc(N(C)c2nc(C)nc3ccccc23)cc1`: the GI50 was under 0.01 µM in the test with 786-0 renal; under 10 nM in the test on A498 renal; under 10 nM in the test on ACHN renal; under 10 nM with K-562 leukemia; under 0.01 µM with KM12 colon; under 10 nM in the test on M14 melanoma. Further, the GI50 is under 10 nM with RPMI-8226 leukemia, 19.3 µM with SK-MEL-28 melanoma, under 0.01 µM in the test on SK-MEL-5 melanoma and under 10 nM with SNB-75 CNS. The TGI was 55.7 µM in the test with 786-0 renal; under 0.01 µM in the test on A498 renal; over 91.8 µM in the test with ACHN renal; over 100 µM in the test on K-562 leukemia; 14.9 µM with M14 melanoma; 18 µM in the test with RPMI-8226 leukemia. Also, the TGI was over 100 µM in the test with SK-MEL-28 melanoma, under 0.01 µM in the test on SK-MEL-5 melanoma and over 100 µM in the test with SNB-75 CNS.

In the case of `O=c1c(Cl)nnc2sc3ccccc3n12`, the GI50 is 64.7 µM in the test on 786-0 renal; over 100000 nM with A498 renal; 2300 nM in the test on ACHN renal; 26000 nM in the test on K-562 leukemia; 32.3 µM with KM12 colon; 22200 nM in the test with M14 melanoma. In addition, the GI50 with RPMI-8226 leukemia was 27900 nM; in the test on SK-MEL-28 melanoma, 59 µM; in the test on SK-MEL-5 melanoma, 37.3 µM; in the test with SNB-75 CNS it was over 100000 nM. For the same compound, the TGI in the test with 786-0 renal was over 100 µM; in the test with A498 renal, over 100 µM; in the test on ACHN renal, 9.92 µM; in the test on K-562 leukemia, over 100 µM; with KM12 colon, over 100 µM; in the test on M14 melanoma, 91.9 µM. The TGI in the test with RPMI-8226 leukemia, in the test with SK-MEL-28 melanoma, with SK-MEL-5 melanoma and in the test on SNB-75 CNS was over 100 µM throughout.

As for `COc1ccc(/C(=C/c2cc(OC)c(OC)c(OC)c2)[N+](=O)[O-])cc1`, the GI50 in the test with 786-0 renal is 1.66 µM; in the test with A498 renal it was 1760 nM; in the test with ACHN renal, 1540 nM; with K-562 leukemia, 1710 nM; with KM12 colon, 1.89 µM; with M14 melanoma it was 1790 nM. Moreover, the GI50 in the test on RPMI-8226 leukemia was 1700 nM; in the test with SK-MEL-28 melanoma, 1.88 µM; in the test on SK-MEL-5 melanoma, 1.69 µM; with SNB-75 CNS, 2020 nM. The TGI in the test with 786-0 renal was 3.05 µM; in the test on A498 renal, 3.63 µM; in the test on ACHN renal, 2.88 µM; with K-562 leukemia, over 100 µM; with KM12 colon, 3.99 µM; with M14 melanoma, 3.72 µM. For the same compound, the TGI in the test on RPMI-8226 leukemia amounted to 4.77 µM; in the test on SK-MEL-28 melanoma, 3.9 µM; with SK-MEL-5 melanoma it was 3.11 µM; with SNB-75 CNS, 6.3 µM.

With `C=C(c1ccccc1N)[C@@]1(O)C[C@H](/C(=C\C)CO)C[C@@H]1NCc1ccccc1`, the TGI in the test with 786-0 renal was 46 µM; in the test with A498 renal, over 100 µM; with ACHN renal, over 100 µM; in the test on K-562 leukemia, 39.5 µM; in the test with KM12 colon, 33.7 µM; in the test with M14 melanoma, 28.5 µM. Further, the TGI in the test on RPMI-8226 leukemia amounted to 42.5 µM; with SK-MEL-28 melanoma it was 33 µM; with SK-MEL-5 melanoma, 32.8 µM; with SNB-75 CNS it was 24.6 µM.

Take `O=C1C2CC(Cl)C(SSC3CC4C(=O)N(SC(Cl)(Cl)C(Cl)Cl)C(=O)C4CC3Cl)CC2C(=O)N1SC(Cl)(Cl)C(Cl)Cl` (centres undefined): the TGI is 3.65 µM in the test on 786-0 renal; 7.73 µM with A498 renal; 6.66 µM in the test with ACHN renal; 5.01 µM in the test with K-562 leukemia; over 51 µM in the test with KM12 colon; 2.88 µM with M14 melanoma. Besides, the TGI in the test with RPMI-8226 leukemia came to 5.35 µM; in the test with SK-MEL-28 melanoma, 6.18 µM; in the test with SK-MEL-5 melanoma, 4.55 µM; in the test on SNB-75 CNS, 6.12 µM.

As to `OB([O][Hg][c]1ccccc1)[O][Hg][c]1ccccc1`, the GI50 in the test on 786-0 renal was 0.281 µM; in the test on A498 renal it was 980 nM; in the test on ACHN renal, 493 nM; in the test with K-562 leukemia it was 234 nM; with KM12 colon it was 1.59 µM; in the test with M14 melanoma it was 283 nM. Besides, the GI50 with RPMI-8226 leukemia was 211 nM; in the test with SK-MEL-28 melanoma, 0.318 µM; in the test with SK-MEL-5 melanoma, 0.538 µM; with SNB-75 CNS, 291 nM. The TGI worked out at 0.856 µM in the test with 786-0 renal; 2.48 µM with A498 renal; 1.39 µM in the test with ACHN renal; 4.96 µM in the test with K-562 leukemia; 3.04 µM in the test on KM12 colon; 0.977 µM in the test with M14 melanoma. In addition, the TGI amounted to 0.592 µM in the test on RPMI-8226 leukemia, 1.33 µM in the test on SK-MEL-28 melanoma, 1.85 µM in the test with SK-MEL-5 melanoma and 1.36 µM with SNB-75 CNS.

In the case of `S=c1[nH]nc(COc2ccc(Cl)cc2)o1`, the TGI with 786-0 renal, in the test on A498 renal, with ACHN renal, in the test on K-562 leukemia, in the test with KM12 colon and in the test on M14 melanoma was over 100 µM in each case. In addition, the TGI in the test on RPMI-8226 leukemia, in the test with SK-MEL-28 melanoma, in the test with SK-MEL-5 melanoma and in the test with SNB-75 CNS was over 100 µM each time.

`O=C(Nc1ccncc1)C(=O)c1cn(S(=O)(=O)c2ccc(Br)cc2)c2ccccc12`: the GI50 in the test on 786-0 renal was 46.3 µM; with A498 renal, 3170 nM; in the test on ACHN renal it was 9130 nM; with K-562 leukemia it was 2490 nM; in the test with KM12 colon, 3.88 µM; in the test on M14 melanoma, 5740 nM. Further, the GI50 in the test with RPMI-8226 leukemia is 4560 nM; in the test on SK-MEL-28 melanoma, 4.77 µM; with SK-MEL-5 melanoma it was 3.5 µM; with SNB-75 CNS, 4000 nM. Further, the TGI with 786-0 renal, in the test on A498 renal, in the test with ACHN renal, in the test on K-562 leukemia, with KM12 colon and in the test with M14 melanoma was over 100 µM each time. In addition, the TGI in the test on RPMI-8226 leukemia was over 100 µM; in the test with SK-MEL-28 melanoma it was over 100 µM; in the test on SK-MEL-5 melanoma, 37.5 µM; with SNB-75 CNS, 41.7 µM.

For the compound `CC(Cl)(/C=C/Cl)C(Cl)/C=C/C(Cl)(CCl)CBr` (centres undefined), the TGI was determined as 10.8 µM in the test on 786-0 renal; 18.4 µM with A498 renal; 18.1 µM in the test on ACHN renal; 14.2 µM in the test on K-562 leukemia; 20.8 µM in the test on KM12 colon; 7.89 µM with M14 melanoma. The TGI in the test with RPMI-8226 leukemia is 7.31 µM; in the test with SK-MEL-28 melanoma it was 8.27 µM; in the test on SK-MEL-5 melanoma, 25.1 µM; in the test on SNB-75 CNS, 14.5 µM.

In the case of `O=C(Nc1n[nH]c2nc(-c3ccco3)c(Br)cc12)C1CC1`, the GI50 in the test on 786-0 renal was over 25 µM; in the test with A498 renal it was over 12500 nM; in the test with ACHN renal it was over 25000 nM; with K-562 leukemia, over 25000 nM; in the test with KM12 colon, over 25 µM; in the test on M14 melanoma, over 25000 nM. Moreover, the GI50 in the test on RPMI-8226 leukemia is over 25000 nM; in the test with SK-MEL-28 melanoma, over 25 µM; with SK-MEL-5 melanoma it was over 16.4 µM; with SNB-75 CNS it was over 9080 nM. The TGI in the test on 786-0 renal, in the test with A498 renal, in the test with ACHN renal, in the test with K-562 leukemia, in the test with KM12 colon and with M14 melanoma was over 25 µM each time. The TGI in the test with RPMI-8226 leukemia, with SK-MEL-28 melanoma, in the test with SK-MEL-5 melanoma and with SNB-75 CNS was over 25 µM throughout.

Regarding `Nc1cccc2c1C(=O)N(C1CCC(=O)NC1=O)C2=O` (centres undefined), the GI50 in the test with 786-0 renal was over 100 µM; in the test with A498 renal, over 100000 nM; in the test with ACHN renal, over 100000 nM; with K-562 leukemia it was over 100000 nM; in the test on KM12 colon, over 100 µM; in the test with M14 melanoma it was over 100000 nM. Further, the GI50 was over 100000 nM in the test on RPMI-8226 leukemia, over 100 µM in the test on SK-MEL-28 melanoma, over 100 µM in the test on SK-MEL-5 melanoma and over 100000 nM in the test on SNB-75 CNS. Further, the TGI in the test with 786-0 renal, in the test on A498 renal, in the test with ACHN renal, in the test with K-562 leukemia, in the test with KM12 colon and in the test on M14 melanoma was over 100 µM each time. Further, the TGI in the test on RPMI-8226 leukemia, with SK-MEL-28 melanoma, with SK-MEL-5 melanoma and in the test on SNB-75 CNS was over 100 µM throughout.
